# Measurements as given in patent US8835432B2, “Heterocyclic compounds and their uses” (Amgen Inc., priority 2012, dated 2014).
# Tests used:
# PI3K d = target: T1, PI3K d (Homo sapiens, UniProt O00329); assay: In vitro enzyme assay, PI3K delta; type: biochemical
# T1 construct: Full length p110 subunits of PI3k α, β and δ, N-terminally labeled with polyHis tag; polyHis (N); made in house; host or cells: Sf9 insect cells (baculovirus)
# Description: (§1) Full length p110 subunits of PI3k α, β and δ, N-terminally labeled with polyHis tag, were coexpressed with p85 with Baculo virus expression vectors in sf9 insect cells. P110/p85 heterodimers were purified by sequential Ni-NTA, Q-HP, Superdex-100 chromatography. Purified α, β and δ isozymes were stored at −20° C. in 20 mM Tris, pH 8, 0.2M NaCl, 50% glycerol, 5 mM DTT, 2 mM Na cholate. Truncated PI3Kγ, residues 114-1102, N-terminally labeled with polyHis tag, was expressed with Baculo virus in Hi5 insect cells. The γ isozyme was purified by sequential Ni-NTA, Superdex-200, Q-HP chromatography. The γ isozyme was stored frozen at −80° C. in NaH2PO4, pH 8, 0.2M NaCl, 1% ethylene glycol, 2 mM β-mercaptoethanol.
# (§2) Assays were performed in 25 μL with the above final concentrations of components in white polyproplyene plates (Costar 3355). Phospatidyl inositol phosphoacceptor, PtdIns(4,5)P2 P4508, was from Echelon Biosciences. The ATPase activity of the alpha and gamma isozymes was not greatly stimulated by PtdIns(4,5)P2 under these conditions and was therefore omitted from the assay of these isozymes. Test compounds were dissolved in dimethyl sulfoxide and diluted with three-fold serial dilutions. The compound in DMSO (1 μL) was added per test well, and the inhibition relative to reactions containing no compound, with and without enzyme was determined After assay incubation at rt, the reaction was stopped and residual ATP determined by addition of an equal volume of a commercial ATP bioluminescence kit (Perkin Elmer EasyLite) according to the manufacturer's instructions, and detected using a AnalystGT luminometer.
# PI3K b = assay: In vitro enzyme assay, PI3K beta; type: biochemical; conditions: ratio of beta to delta IC50
# Description: as §1, §2
# PI3Ka = target: T2, PI3Ka (Homo sapiens, UniProt P42336); assay: In vitro enzyme assay, PI3K alpha; type: biochemical
# T2 construct: Full length p110 subunits of PI3k α, β and δ, N-terminally labeled with polyHis tag; polyHis (N); made in house; host or cells: Sf9 insect cells (baculovirus)
# Description: as §1, §2
# PI3Kg = target: T3, PI3Kg (Homo sapiens, UniProt P48736); assay: In vitro enzyme assay, PI3K gamma; type: biochemical
# T3 construct: Truncated PI3Kγ, residues 114-1102, N-terminally labeled with polyHis tag; polyHis (N); made in house; host or cells: Hi5 insect cells (baculovirus)
# Description: as §1, §2
# Human B cells = Human B cells proliferation stimulated by anti-IgM; type: cell-based; conditions: Hu B Cell anti-IgM, note under the cell, read-out: on target anti-IgM (Hu B Cell anti-IgM)
# Description: Human B Cells Proliferation Stimulate by Anti-IgM
# Isolate PBMCs from Leukopac or from human fresh blood. Isolate human B cells by using Miltenyi protocol and B cell isolation kit II.-human B cells were Purified by using AutoMacs.column.
# Activation of Human B Cells
# Use 96 well Flat bottom plate, plate 50000/well purified B cells in B cell proliferation medium (DMEM+5% FCS, 10 mM Hepes, 50 μM 2-mercaptoethanol); 150 μL medium contain 250 ng/mL CD40L-LZ recombinant protein (Amgen) and 2 μg/mL anti-Human IgM antibody (Jackson ImmunoReseach Lab.#109-006-129), mixed with 50 μL B cell medium containing PI3K inhibitors and incubate 72 h at 37° C. incubator. After 72 h, pulse labeling B cells with 0.5-1 uCi/well ^3H thymidine for overnight ˜18 h, and harvest cell using TOM harvester.
# PI3KIII = target: T4, PI3KIII (Homo sapiens, UniProt Q8NEB9); assay: Class III PI(3)P assay (U20S EGFP-2XFYVE cells); type: cell-based
# T4 construct: host or cells: U2OS EGFP-2XFYVE cells
# Description: (§3) GFP Assays for Detecting Inhibition of Class Ia and Class III PI3K
# FYVE domains bind to PI(3)P. the majority is generated by constitutive action of PI3K Class III
# Class III PI(3)P assay (U20S EGFP-2XFYVE Cells/GE Healthcare)
# Wash cells with assay buffer. Treat with compounds in assay buffer 1 h. Fix and image.
# Control for all 3 assays is […] Wortmannin:
# PI(3)P depleted from endosomes
# PI3Kb [1] = target: T5, PI3Kb (Homo sapiens, UniProt P42338); assay: Forkhead translocation assay (MDA MB468 Forkhead-DiversaGFP cells); type: cell-based; design: endogenous in cells; host or cells: MDA MB468 (Forkhead-DiversaGFP) cells; conditions: first value of the cell; MDA468 forkhead; read-out: PI3KbMDA468 FH
# Description: as §3
# Forkhead (FKHRL1) is a substrate for AKT1. It is cytoplasmic when phosphorylated by AKT (survival/growth). Inhibition of AKT (stasis/apoptosis)-forkhead translocation to the nucleus
# Forkhead Translocation Assay (MDA MB468 Forkhead-DiversaGFP Cells)
# Treat cells with compound in growth medium 1 h. Fix and image.
# PI3Kb [2] = target: T5, PI3Kb; assay: In vitro enzyme assay, PI3K beta; type: biochemical; design: Full length p110 subunits of PI3k α, β and δ, N-terminally labeled with polyHis tag; polyHis (N); made in house; host or cells: Sf9 insect cells (baculovirus); conditions: read-out: P13K b IC50
# Description: as §1, §2
# T3 sequence (P48736 114-1102): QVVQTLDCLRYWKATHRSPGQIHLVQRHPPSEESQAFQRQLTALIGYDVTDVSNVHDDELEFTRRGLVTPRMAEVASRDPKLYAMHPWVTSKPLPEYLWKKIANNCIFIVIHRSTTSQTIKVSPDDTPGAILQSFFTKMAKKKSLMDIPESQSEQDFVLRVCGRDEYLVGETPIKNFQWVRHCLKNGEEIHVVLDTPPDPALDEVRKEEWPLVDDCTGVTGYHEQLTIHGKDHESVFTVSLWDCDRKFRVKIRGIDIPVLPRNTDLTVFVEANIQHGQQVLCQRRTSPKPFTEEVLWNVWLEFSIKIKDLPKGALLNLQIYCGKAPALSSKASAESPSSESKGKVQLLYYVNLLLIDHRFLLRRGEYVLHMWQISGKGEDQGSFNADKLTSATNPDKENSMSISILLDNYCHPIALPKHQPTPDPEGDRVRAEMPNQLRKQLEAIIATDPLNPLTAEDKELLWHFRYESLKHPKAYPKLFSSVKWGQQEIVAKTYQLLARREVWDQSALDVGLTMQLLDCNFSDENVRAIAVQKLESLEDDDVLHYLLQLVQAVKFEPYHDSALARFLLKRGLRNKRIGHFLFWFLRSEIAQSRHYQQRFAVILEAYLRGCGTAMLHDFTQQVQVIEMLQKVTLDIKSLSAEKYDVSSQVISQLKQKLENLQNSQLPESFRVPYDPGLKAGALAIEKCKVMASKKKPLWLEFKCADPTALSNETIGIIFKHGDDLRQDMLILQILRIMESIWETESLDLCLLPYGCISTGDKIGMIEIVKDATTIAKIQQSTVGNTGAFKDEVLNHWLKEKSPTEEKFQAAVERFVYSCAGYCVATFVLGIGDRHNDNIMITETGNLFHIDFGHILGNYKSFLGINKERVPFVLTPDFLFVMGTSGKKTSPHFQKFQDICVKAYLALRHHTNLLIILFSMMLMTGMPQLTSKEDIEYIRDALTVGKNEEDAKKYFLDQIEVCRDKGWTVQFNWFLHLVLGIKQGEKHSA
# T5 sequence (P42338 whole entry): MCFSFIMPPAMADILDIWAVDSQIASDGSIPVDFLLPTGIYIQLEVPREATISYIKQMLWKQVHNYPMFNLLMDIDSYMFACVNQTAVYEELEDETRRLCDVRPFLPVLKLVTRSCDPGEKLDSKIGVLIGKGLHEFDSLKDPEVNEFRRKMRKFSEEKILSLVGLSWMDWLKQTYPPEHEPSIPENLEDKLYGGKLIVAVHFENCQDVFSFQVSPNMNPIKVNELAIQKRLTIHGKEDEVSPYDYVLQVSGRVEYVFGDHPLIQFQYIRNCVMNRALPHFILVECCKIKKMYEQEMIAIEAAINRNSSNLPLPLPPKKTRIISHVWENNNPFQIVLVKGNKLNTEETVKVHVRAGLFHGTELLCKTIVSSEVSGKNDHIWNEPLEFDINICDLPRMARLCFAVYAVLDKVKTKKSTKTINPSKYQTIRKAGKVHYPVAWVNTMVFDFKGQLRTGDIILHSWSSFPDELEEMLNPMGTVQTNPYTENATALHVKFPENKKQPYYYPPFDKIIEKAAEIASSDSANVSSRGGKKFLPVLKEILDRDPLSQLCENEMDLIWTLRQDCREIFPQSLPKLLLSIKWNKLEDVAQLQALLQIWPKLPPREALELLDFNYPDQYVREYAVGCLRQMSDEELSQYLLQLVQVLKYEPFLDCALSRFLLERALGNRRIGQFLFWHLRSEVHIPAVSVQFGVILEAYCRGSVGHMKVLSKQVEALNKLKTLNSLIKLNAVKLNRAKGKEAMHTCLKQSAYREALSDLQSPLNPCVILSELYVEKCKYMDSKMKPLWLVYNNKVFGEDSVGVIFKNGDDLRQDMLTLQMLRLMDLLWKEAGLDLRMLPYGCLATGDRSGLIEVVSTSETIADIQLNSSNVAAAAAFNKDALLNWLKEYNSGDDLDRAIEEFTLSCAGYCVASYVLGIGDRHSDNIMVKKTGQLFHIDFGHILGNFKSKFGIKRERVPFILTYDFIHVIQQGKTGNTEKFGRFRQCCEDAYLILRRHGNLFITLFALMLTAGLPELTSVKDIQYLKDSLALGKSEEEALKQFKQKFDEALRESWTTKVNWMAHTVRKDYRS
# T5 sequence (P27986 whole entry partner): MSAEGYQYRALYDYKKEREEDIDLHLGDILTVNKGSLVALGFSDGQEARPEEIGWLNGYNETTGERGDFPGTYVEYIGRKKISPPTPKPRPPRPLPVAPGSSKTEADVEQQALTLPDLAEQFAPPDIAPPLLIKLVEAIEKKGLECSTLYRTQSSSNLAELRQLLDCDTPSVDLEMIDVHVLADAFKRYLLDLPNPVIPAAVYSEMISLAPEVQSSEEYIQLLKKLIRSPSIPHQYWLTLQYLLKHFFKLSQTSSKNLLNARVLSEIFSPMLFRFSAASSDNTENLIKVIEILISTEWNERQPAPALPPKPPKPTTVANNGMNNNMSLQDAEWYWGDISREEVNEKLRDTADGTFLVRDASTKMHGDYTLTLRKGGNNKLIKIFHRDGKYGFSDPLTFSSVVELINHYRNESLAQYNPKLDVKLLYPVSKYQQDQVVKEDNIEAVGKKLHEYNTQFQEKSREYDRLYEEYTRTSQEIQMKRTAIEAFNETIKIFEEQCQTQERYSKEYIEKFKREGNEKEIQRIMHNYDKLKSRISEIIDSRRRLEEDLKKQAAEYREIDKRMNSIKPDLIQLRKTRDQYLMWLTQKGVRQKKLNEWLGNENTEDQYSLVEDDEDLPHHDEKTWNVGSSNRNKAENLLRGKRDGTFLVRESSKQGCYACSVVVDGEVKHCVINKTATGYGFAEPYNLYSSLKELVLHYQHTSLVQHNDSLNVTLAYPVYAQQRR
# T2 sequence (P42336 whole entry): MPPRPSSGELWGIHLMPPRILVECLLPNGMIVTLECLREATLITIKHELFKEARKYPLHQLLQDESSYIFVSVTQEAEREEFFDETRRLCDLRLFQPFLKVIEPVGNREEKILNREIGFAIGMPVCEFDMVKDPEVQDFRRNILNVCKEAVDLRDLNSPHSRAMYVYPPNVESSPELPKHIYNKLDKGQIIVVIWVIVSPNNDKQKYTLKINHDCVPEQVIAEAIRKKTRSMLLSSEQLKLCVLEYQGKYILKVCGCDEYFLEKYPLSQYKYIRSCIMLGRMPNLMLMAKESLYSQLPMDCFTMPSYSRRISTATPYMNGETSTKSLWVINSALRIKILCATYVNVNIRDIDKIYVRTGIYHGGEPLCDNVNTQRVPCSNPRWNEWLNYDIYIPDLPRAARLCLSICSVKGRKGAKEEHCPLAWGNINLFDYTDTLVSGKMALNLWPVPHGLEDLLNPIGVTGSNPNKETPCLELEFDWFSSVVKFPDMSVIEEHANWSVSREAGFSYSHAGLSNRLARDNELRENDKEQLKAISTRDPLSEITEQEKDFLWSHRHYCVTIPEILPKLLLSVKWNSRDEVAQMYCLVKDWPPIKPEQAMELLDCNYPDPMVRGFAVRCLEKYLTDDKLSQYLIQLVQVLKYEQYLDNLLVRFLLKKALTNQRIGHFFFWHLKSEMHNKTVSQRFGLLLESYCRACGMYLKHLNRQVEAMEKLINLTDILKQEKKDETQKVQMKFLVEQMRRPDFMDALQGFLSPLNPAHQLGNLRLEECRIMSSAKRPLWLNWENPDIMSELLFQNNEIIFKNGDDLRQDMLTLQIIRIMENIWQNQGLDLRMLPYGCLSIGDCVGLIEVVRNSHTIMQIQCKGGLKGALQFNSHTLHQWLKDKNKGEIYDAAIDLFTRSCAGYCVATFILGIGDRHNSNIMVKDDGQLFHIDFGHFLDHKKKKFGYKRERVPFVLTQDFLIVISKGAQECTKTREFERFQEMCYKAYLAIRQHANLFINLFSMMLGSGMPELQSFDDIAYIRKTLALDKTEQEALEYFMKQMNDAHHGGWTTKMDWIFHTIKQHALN
# T2 sequence (P27986 whole entry partner): as the sequence (P27986 whole entry partner) above
# T1 sequence (O00329 whole entry): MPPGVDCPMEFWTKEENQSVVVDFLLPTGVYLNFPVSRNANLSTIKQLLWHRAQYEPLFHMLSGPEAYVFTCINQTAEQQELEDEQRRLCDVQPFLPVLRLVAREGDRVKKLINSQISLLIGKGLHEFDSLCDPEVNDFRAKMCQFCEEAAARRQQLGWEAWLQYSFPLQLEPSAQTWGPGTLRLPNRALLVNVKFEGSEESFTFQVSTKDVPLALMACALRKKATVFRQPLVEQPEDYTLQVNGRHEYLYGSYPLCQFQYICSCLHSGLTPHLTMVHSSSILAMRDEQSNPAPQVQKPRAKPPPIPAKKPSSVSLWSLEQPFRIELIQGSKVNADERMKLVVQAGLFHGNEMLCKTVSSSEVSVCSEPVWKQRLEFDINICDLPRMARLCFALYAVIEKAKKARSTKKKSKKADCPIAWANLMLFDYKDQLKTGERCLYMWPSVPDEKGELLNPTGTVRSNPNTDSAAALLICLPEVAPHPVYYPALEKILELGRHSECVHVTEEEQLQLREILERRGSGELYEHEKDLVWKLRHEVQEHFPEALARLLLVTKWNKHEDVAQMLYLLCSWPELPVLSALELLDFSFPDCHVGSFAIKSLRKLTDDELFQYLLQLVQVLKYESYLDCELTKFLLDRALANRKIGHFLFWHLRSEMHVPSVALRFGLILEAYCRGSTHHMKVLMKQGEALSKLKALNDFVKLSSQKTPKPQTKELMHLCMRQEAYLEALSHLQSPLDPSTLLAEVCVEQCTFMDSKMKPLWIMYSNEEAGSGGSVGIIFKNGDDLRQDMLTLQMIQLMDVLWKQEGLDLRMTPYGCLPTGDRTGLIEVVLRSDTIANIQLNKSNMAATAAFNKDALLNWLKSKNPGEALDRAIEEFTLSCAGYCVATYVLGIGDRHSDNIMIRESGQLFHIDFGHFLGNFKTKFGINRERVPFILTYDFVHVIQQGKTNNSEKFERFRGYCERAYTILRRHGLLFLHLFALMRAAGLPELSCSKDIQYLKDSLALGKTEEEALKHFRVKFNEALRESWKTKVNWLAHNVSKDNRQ
# T1 sequence (P27986 whole entry partner): as the sequence (P27986 whole entry partner) above
structure (smiles),measurement,setting,value
"C[C@H](Nc1ncnc(N)c1C#N)c1nc2ccc(F)cc2nc1-c1ccccn1 [Example 7, (S)-4-Amino-6-((1-(6-fluoro-3-(pyridin-2-yl)quinoxalin-2-yl)ethyl)amino)-pyrimidine-5-carbonitrile]",IC50,PI3K d,11.7 nM
same,PI3K: b/d,PI3K b,213
same,PI3Ka IC50,PI3Ka,12700 nM
same,PI3K: a/d,PI3Ka; ratio of alpha to delta IC50,1085
same,IC50,PI3Kg,3900 nM
same,PI3K: g/d,PI3Kg; ratio of gamma to delta IC50,333
same,IC50,Human B cells,10.4 nM
same,IC50,PI3KIII,> 10000 nM
same,IC50,PI3Kb [1],> 10000 nM
same,IC50,PI3Kb [2],2490 nM
